According to US20200390764A1, “PHARMACEUTICAL FORMULATIONS, PROCESSES FOR PREPARATION, AND METHODS OF USE” (Sunesis Pharmaceuticals, Inc., priority 2017, published 2020):
Converted amounts (≈) assume the structure as drawn.

Experiments:
[1] = tested on: cell lines derived from hematologic cancers; experiment: Anti-proliferative activity in a panel of hematologic cancer cell lines; format: cell-based; conditions: panel of more than 20 cell lines: AML, multiple myeloma, DLBCL, Mantle cell lymphoma
Excerpt: (§1) The compounds bind deep in the adaptive (allosteric) pocket, causing a distortion in the N-terminal domain thereby perturbing the PIF-pocket and thus negatively modulating PI-independent substrate binding. […] Anti-proliferative activity correlated with pathway modulation assessed by inhibition of phosphorylation of PDK1, RSK2, and AKT.

[2] = tested on: MV4-11 xenografts; experiment: In vivo pathway modulation in MV4-11 xenografts; conditions: 4 hours and 24 hours after a single oral dose, MV4-11 xenografts in mice
Experimental: Pathway modulation was assessed in vivo using MV4-11 xenografts in mice. […] Efficacy was assessed by 21-day dosing in MV4-11 xenografts.

[3] = tested on: cell lines derived from hematologic cancers; experiment: 72-hour viability assays; format: cell-based
Excerpt: as §1

[4] = Oral pharmacokinetics in mice; format: in vivo; conditions: for Tmax / bioavailability: mouse, in vivo; for bioavailability: read-out: oral bioavailability % F
[5] = tested on: cell lines derived from hematologic cancers; experiment: Apoptosis induction in cancer cell lines; format: cell-based; conditions: after 24 hours
Excerpt: as §1

[6] = tested on: phosphorylation of PDK1, RSK2, and AKT; experiment: Pathway modulation in cells: inhibition of phosphorylation; format: cell-based
Excerpt: as §1

[7] = molecular target: T1, PDK1 (Homo sapiens, UniProt O15530); experiment: PDK1 biochemical potency (binding of the inactive conformation); conditions: compared to the PDK1 inhibitor GSK2334470
T1 sequence (O15530 1-556): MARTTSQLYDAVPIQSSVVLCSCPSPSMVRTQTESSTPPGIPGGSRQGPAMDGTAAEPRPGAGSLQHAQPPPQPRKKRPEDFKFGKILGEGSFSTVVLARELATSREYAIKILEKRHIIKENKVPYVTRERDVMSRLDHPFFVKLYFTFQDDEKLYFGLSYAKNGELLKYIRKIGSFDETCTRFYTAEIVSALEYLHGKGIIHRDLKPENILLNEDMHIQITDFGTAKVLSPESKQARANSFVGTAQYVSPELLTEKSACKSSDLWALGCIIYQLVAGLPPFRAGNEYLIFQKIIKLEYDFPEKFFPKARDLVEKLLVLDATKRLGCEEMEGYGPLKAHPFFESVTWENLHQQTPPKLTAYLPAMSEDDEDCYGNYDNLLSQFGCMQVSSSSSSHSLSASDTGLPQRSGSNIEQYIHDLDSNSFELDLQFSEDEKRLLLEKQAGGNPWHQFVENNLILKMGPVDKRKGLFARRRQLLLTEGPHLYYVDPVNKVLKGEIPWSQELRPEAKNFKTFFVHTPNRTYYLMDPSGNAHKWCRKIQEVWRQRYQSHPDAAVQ
Excerpt: as §1

[8] = Aqueous solubility; format: physicochemical
Excerpt: The present invention provides a process for the preparation of a pharmaceutical composition comprising active compounds as described herein, with improved absorption. […] According to the process of the present invention, it is possible to provide, from an active compound, a formulation in which the dissolution rate and oral bioavailability of the drug are high. Furthermore, the solid dispersion extrudates of the present invention have good stability at room temperature.
To overcome the inherent hurdles posed by this class of drugs, three alternative formulation approaches were screened: lipid-based formulation, nano-suspension, and solid dispersion via hot melt extrusion (HME).

Compound: CNc1n[nH]c2ncc(-c3ccc(CNc4ncc(C#N)nc4C(=O)N[C@@H](C)c4ccc(F)c(F)c4)cc3)cc12 [Compound 2, 6-Cyano-3-[4-(3-methylamino-1H-pyrazolo[3,4-b]pyridin-5-yl)-benzylamino]-pyrazine-2-carboxylic acid [1-(3,4-difluoro-phenyl)-ethyl]-amide]
- EC50 [1]: 3 to 900 nM
- pathway modulation in vivo [2]: Potent pathway modulation
- fold more potent than GSK2334470 in viability assays [3]: at least 10 fold
- half-life [4]: long half-life
- Tmax [4]: 4 to 8 h
- bioavailability [4]: > 40%
- apoptosis [5]: substantial apoptosis
- inhibition of PDK1 phosphorylation, fold more after 24 hours than 4 hours ([6]; 24 hours vs 4 hours): 2-5 fold
- fold more potent than GSK2334470 at inhibiting PDK1 and RSK2 phosphorylation ([6]; all cell lines tested): 10- to 30 fold
- biochemical potency compared to GSK2334470 [7]: comparable biochemical potency

Compound: C[C@H](NC(=O)c1nc(C#N)cnc1NCc1ccc(-c2cnc3[nH]nc(N)c3n2)cc1)c1ccc(F)c(F)c1 (stereo in doubt) [Compound 1, 3-[4-(3-Amino-1H-pyrazolo[3,4-b]pyrazin-5-yl)-benzylamino]-6-cyano-pyrazine-2-carboxylic acid [1-(3,4-difluoro-phenyl)-ethyl]-amide]
- pathway modulation in vivo [2]: Potent pathway modulation
- solubility ([8]; aqueous buffer, over the physiological pH range): < 0.1 µg/mL
- solubility ([8]; aqueous medium (not specified further)): 0.1 µg/mL (≈ 0.19 µM)
- half-life [4]: long half-life
- Tmax [4]: 4 to 8 h
- bioavailability [4]: > 40%
